These results are taken from patent US20080161232A1, “C5a Receptor Antagonist” (JERINI AG, priority 2005, published 2008).

Starred links: 1 amine or outer side, 2 acyl side, 3 side chain; linkers in the order of their positions; H or OH if unused. Positions of bridges follow the written chain, without caps; N, C: chain ends. Non-standard residues stand in square brackets, D forms with d. Residues, ends and D or L forms follow the SMILES beside them. Groups on a side chain read outwards from the residue. *: point of attachment. Phe(3-NO2) = N[C@@H](Cc1cccc([N+](=O)[O-])c1)C(=O)O; Phe(4-tBu) = CC(C)(C)c1ccc(C[C@H](N)C(=O)O)cc1; Phe(3,4-F2) = N[C@@H](Cc1ccc(F)c(F)c1)C(=O)O; Phe(3-Cl) = N[C@@H](Cc1cccc(Cl)c1)C(=O)O; Phe(3-F) = N[C@@H](Cc1cccc(F)c1)C(=O)O; Phe(4-F) = N[C@@H](Cc1ccc(F)cc1)C(=O)O; X10 = CCN(CC)[C@@H](Cc1ccccc1)C(=O)*; Bta = N[C@@H](Cc1csc2ccccc12)C(=O)O; Morpholinoacetyl = O=C(CN1CCOCC1)*; cisHyp = O=C(O)[C@@H]1C[C@H](O)CN1; d(hCha) = N[C@H](CCC1CCCCC1)C(=O)O; Hydrocinnamoyl = O=C(CCc1ccccc1)*; Hyp = O=C(O)[C@@H]1C[C@@H](O)CN1; d(hLeu) = CC(C)CC[C@@H](N)C(=O)O; β3hF = N[C@H](CC(=O)O)Cc1ccccc1; 2Thi = N[C@@H](Cc1cccs1)C(=O)O; Cit = NC(=O)NCCC[C@H](N)C(=O)O; NMeN = CN[C@@H](CC(N)=O)C(=O)O; dCha = N[C@H](CC1CCCCC1)C(=O)O; NHCH2CH(OH)CH2OH = OCC(O)CN*; Morpholide = C1CN(*)CCO1; Nle = CCCC[C@H](N)C(=O)O; Orn = NCCC[C@H](N)C(=O)O; Aze = O=C(O)[C@@H]1CCN1; CO = O=C([*:1])[*:2]; X22 = c1cncc(C*)c1; Moc = COC(=O)*

One assay addresses T1, human C5aR(CD88) (Homo sapiens, UniProt P21730).
T1 construct: expressed in transfected cells; host or cells: rat basophilic leukemia cells (RBL)
T1 sequence (P21730 1-350): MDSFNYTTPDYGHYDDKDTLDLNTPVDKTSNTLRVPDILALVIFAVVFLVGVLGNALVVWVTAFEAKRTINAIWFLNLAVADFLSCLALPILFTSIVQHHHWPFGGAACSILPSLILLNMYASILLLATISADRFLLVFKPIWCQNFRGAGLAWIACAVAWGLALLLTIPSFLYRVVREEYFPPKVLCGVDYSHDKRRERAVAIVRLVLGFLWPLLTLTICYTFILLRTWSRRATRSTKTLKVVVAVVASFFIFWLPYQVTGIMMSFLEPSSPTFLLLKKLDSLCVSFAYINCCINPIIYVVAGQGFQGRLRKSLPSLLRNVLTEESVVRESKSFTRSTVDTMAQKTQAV
Nature of the assay: Determination of the IC50 value in an enzyme release assay (functional assay, antagonistic activity). The assay is classed as cell-based. The following applies: activity (group).
Molecule `CC(=O)N[C@@H](Cc1ccccc1)C(=O)N[C@@H](CCCN)C(=O)N1CCC[C@H]1C(=O)N[C@H](CCC(C)C)C(=O)N[C@@H](Cc1cccc(Cl)c1)C(=O)N[C@@H](Cc1ccccc1)C(N)=O` [Compound 291, Ac-Phe-Orn-Pro-hle-Mcf-Phe-NH2] (Ac-F[Orn]P[d(hLeu)][Phe(3-Cl)]F-NH2) had an IC50 of 50 to 200 nM.

The same assay, now with this note: antagonistic activity; IC50 group in enzyme release assay, RBL cells expressing human C5aR(CD88); read-out: activity (group).
As to `CC(=O)N[C@@H](Cc1ccccc1)C(=O)N[C@@H](CCCN)C(=O)N1CCC[C@H]1C(=O)N[C@H](CC1CCCCC1)C(=O)N[C@@H](Cc1c[nH]c2ccccc12)C(=O)N[C@@H](Cc1ccc(C(C)(C)C)cc1)C(N)=O` [Compound 68, Ac-Phe-Orn-Pro-cha-Trp-Eap-NH2] (Ac-F[Orn]P[dCha]W[Phe(4-tBu)]-NH2), the IC50 lay in the range of 200 to 2000 nM.

On to `CC(=O)NCC(=O)N[C@@H](Cc1ccccc1)C(=O)N[C@@H](CCCN)C(=O)N1CC[C@H]1C(=O)N[C@H](CC1CCCCC1)C(=O)N[C@@H](Cc1csc2ccccc12)C(=O)N[C@@H](Cc1ccccc1)C(N)=O` [Compound 136, Ac-Gly-Phe-Orn-Aze-cha-Bta-Phe-NH2] (Ac-GF[Orn][Aze][dCha][Bta]F-NH2), for which the IC50 is 20 to 50 nM.

For the molecule `NCCC[C@H](NC(=O)CCc1ccccc1)C(=O)N1CCC[C@H]1C(=O)N[C@H](CC1CCCCC1)C(=O)N[C@@H](Cc1csc2ccccc12)C(=O)N[C@@H](Cc1ccccc1)C(N)=O` [Compound 324, Faz-Orn-Pro-cha-Bta-Phe-NH2] (Hydrocinnamoyl-[Orn]P[dCha][Bta]F-NH2), the IC50 fell in the range of 50 to 200 nM.

As to `CC(=O)NCCC[C@H](NC(=O)[C@H](Cc1ccccc1)NC(C)=O)C(=O)N1CCC[C@H]1C(=O)N[C@H](CC1CCCCC1)C(=O)N[C@@H](Cc1csc2ccccc12)C(=O)N[C@@H](Cc1ccccc1)C(N)=O` [Compound 232, Ac-Phe-OrA-Pro-cha-Bta-Phe-NH2] (Ac-F[Orn](Ac)P[dCha][Bta]F-NH2), the IC50 lay in the range of 50 to 200 nM.

Regarding `CC(=O)N[C@@H](Cc1ccccc1)C(=O)N[C@@H](CCCN)C(=O)N1CCC[C@H]1C(=O)N[C@H](CCC(C)C)C(=O)N[C@@H](Cc1cccc([N+](=O)[O-])c1)C(=O)N[C@@H](Cc1ccccc1)C(N)=O` [Compound 287, Ac-Phe-Orn-Pro-hle-Egz-Phe-NH2] (Ac-F[Orn]P[d(hLeu)][Phe(3-NO2)]F-NH2), the IC50 was in the range of 50 to 200 nM.

As to `CCCC[C@@H]1NC(=O)[C@H](Cc2c[nH]c3ccccc23)NC(=O)[C@@H](CCC(C)C)NC(=O)[C@@H]2CCCN2C(=O)[C@@H](NC(=O)[C@H](Cc2ccccc2)NC(C)=O)CCCNC1=O` [Compound 199, Ac-Phe-[Orn-Pro-hle-Trp-Nle]] (Ac-F[Orn]P[d(hLeu)]W[Nle]; lactam 2-C), the IC50 is 20 to 50 nM.

In the case of `CCCC[C@@H]1NC(=O)[C@H](Cc2c[nH]c3ccccc23)NC(=O)[C@@H](CC2CCCCC2)NC(=O)[C@@H]2CCCN2C(=O)[C@@H](NC(=O)[C@H](Cc2ccccc2)NC(=O)N2CCOCC2)CCCNC1=O` [Compound 330, Fbo-Phe-[Orn-Pro-cha-Trp-Nle]] ({Morpholide-CO}-F[Orn]P[dCha]W[Nle]; lactam 2-C), the IC50 is 50 to 200 nM.

Take `CC(=O)N[C@@H](Cc1ccccc1)C(=O)N[C@@H](CCCN)C(=O)N1CCC[C@H]1C(=O)N[C@H](CCC1CCCCC1)C(=O)N[C@@H](Cc1c[nH]c2ccccc12)C(=O)N[C@@H](Cc1ccccc1)C(=O)O` [Compound 132, Ac-Phe-Orn-Pro-hch-Trp-Phe-OH] (Ac-F[Orn]P[d(hCha)]WF-OH): the IC50 lay within 50 to 200 nM.

On to `CCCC[C@@H]1NC(=O)[C@H](Cc2c[nH]c3ccccc23)NC(=O)[C@@H](CC2CCCCC2)NC(=O)[C@@H]2C[C@@H](OC(=O)NCC(O)CO)CN2C(=O)[C@@H](NC(=O)[C@H](Cc2ccccc2)NC(C)=O)CCCNC1=O` (stereo partly shown) [Compound 6, Ac-Phe-[Orn-Hyp(CONH—CH2CH(OH)—CH2OH)-cha-Trp-Nle]] (Ac-F[Orn][Hyp]([CO-NHCH2CH(OH)CH2OH])[dCha]W[Nle]; lactam 2-C), for which the IC50 lay within 50 to 200 nM.

As to `CC(=O)N[C@@H](Cc1ccccc1)C(=O)N[C@@H](Cc1csc2ccccc12)C(=O)N1CC[C@H]1C(=O)N[C@H](CC1CCCCC1)C(=O)N[C@@H](Cc1csc2ccccc12)C(=O)N[C@@H](Cc1ccccc1)C(N)=O` [Compound 112, Ac-Phe-Bta-Aze-cha-Bta-Phe-NH2] (Ac-F[Bta][Aze][dCha][Bta]F-NH2), the IC50 was in the range of 20 to 50 nM.

For the molecule `CC(=O)N[C@@H](Cc1ccccc1)C(=O)N[C@@H](CCCN)C(=O)N1CCC[C@H]1C(=O)N[C@H](CC1CCCCC1)C(=O)N[C@@H](Cc1csc2ccccc12)C(=O)N[C@@H](Cc1ccc(F)c(F)c1)C(N)=O` [Compound 251, Ac-Phe-Orn-Pro-cha-Bta-Dff-NH2] (Ac-F[Orn]P[dCha][Bta][Phe(3,4-F2)]-NH2), the IC50 was in the range of 20 to 50 nM.

Turning to `O=C(CN1CCOCC1)N[C@@H](Cc1ccccc1)C(=O)N[C@H]1CCCNC(=O)[C@H](Cc2ccccc2)NC(=O)[C@H](Cc2c[nH]c3ccccc23)NC(=O)[C@@H](CC2CCCCC2)NC(=O)[C@@H]2C[C@@H](O)CN2C1=O` [Compound 335, Fha-Phe-[Orn-Hyp-cha-Trp-Phe]] (Morpholinoacetyl-F[Orn][Hyp][dCha]WF; lactam 2-C), the IC50 was in the range of 50 to 200 nM.

On to `CC(=O)NCC(=O)N[C@@H](Cc1cccs1)C(=O)N[C@@H](CCCN)C(=O)N1CC[C@H]1C(=O)N[C@H](CC1CCCCC1)C(=O)N[C@@H](Cc1csc2ccccc12)C(=O)N[C@@H](Cc1ccccc1)C(N)=O` [Compound 157, Ac-Gly-Thi-Orn-Aze-cha-Bta-Phe-NH2] (Ac-G[2Thi][Orn][Aze][dCha][Bta]F-NH2), for which the IC50 lay in the range of 20 to 50 nM.

With `CC(=O)N[C@@H](Cc1ccccc1)C(=O)N[C@H]1CCCNC(=O)[C@H](CSCc2cccnc2)NC(=O)[C@H](Cc2c[nH]c3ccccc23)NC(=O)[C@@H](CC2CCCCC2)NC(=O)[C@@H]2CCCN2C1=O` [compound 17] (Ac-F[Orn]P[dCha]WC(X22); lactam 2-C), the IC50 is 200 to 2000 nM.

On to `CCCC[C@@H]1NC(=O)[C@H](Cc2ccc(F)cc2)NC(=O)[C@@H](CC2CCCCC2)NC(=O)[C@@H]2CCCN2C(=O)[C@@H](NC(=O)[C@@H](N)Cc2ccccc2)CCCNC1=O` [Compound 374, H-Phe-[Orn-Pro-cha-Pff-Nle]] (H-F[Orn]P[dCha][Phe(4-F)][Nle]; lactam 2-C), for which the IC50 was in the range of 50 to 200 nM.

Consider `CC(=O)N[C@@H](Cc1ccccc1)C(=O)N[C@@H](CCCN)C(=O)N1CCC[C@H]1C(=O)N[C@H](CC1CCCCC1)C(=O)N[C@@H](Cc1csc2ccccc12)C(=O)N[C@H](CC(N)=O)Cc1ccccc1` [Compound 250, Ac-Phe-Orn-Pro-cha-Bta-Bhf-NH2] (Ac-F[Orn]P[dCha][Bta][β3hF]-NH2), for which the IC50 was in the range of 20 to 50 nM.

`CCCC[C@@H]1NC(=O)[C@H](Cc2c[nH]c3ccccc23)NC(=O)[C@@H](CCC(C)C)NC(=O)[C@H](CO)NC(=O)[C@@H](NC(=O)[C@H](Cc2ccccc2)N(CC)CC)CCCNC1=O` [Compound 317, Def-[Orn-Ser-hle-Trp-Nle]] (X10-[Orn]S[d(hLeu)]W[Nle]; lactam 1-C): the IC50 is 50 to 200 nM.

As to `CC(=O)N[C@@H](Cc1ccccc1)C(=O)N[C@@H](CCCN)C(=O)N1C[C@@H](O)C[C@H]1C(=O)N[C@H](CC1CCCCC1)C(=O)N[C@@H](Cc1csc2ccccc12)C(=O)N[C@@H](Cc1ccccc1)C(N)=O` [Compound 235, Ac-Phe-Orn-Chy-cha-Bta-Phe-NH2] (Ac-F[Orn][cisHyp][dCha][Bta]F-NH2), the IC50 was in the range of 50 to 200 nM.

With `CC(=O)N[C@@H](Cc1ccccc1)C(=O)N[C@H]1CCCNC(=O)[C@H](CCCN=C(N)N)NC(=O)[C@H](C)NC(=O)[C@@H](CC2CCCCC2)NC(=O)[C@@H]2CCCN2C1=O` [compound 48] (Ac-F[Orn]P[dCha]AR; lactam 2-C), the IC50 is above 2000 nM.

As to `CC(=O)N[C@@H](Cc1ccccc1)C(=O)N[C@H]1CCCNC(=O)[C@H](Cc2ccccc2)NC(=O)[C@H](Cc2ccc(F)cc2)NC(=O)[C@@H](CCC(C)C)NC(=O)[C@@H]2CCCN2C1=O` [Compound 198, Ac-Phe-[Orn-Pro-hle-Pff-Phe]] (Ac-F[Orn]P[d(hLeu)][Phe(4-F)]F; lactam 2-C), the IC50 lay within 50 to 200 nM.

For `CC(=O)N[C@@H](Cc1cccc(F)c1)C(=O)N[C@@H](CCCN)C(=O)N1CCC[C@H]1C(=O)N[C@H](CC1CCCCC1)C(=O)N[C@@H](Cc1csc2ccccc12)C(=O)N[C@@H](Cc1ccccc1)C(N)=O` [Compound 161, Ac-Mff-Orn-Pro-cha-Bta-Phe-NH2] (Ac-[Phe(3-F)][Orn]P[dCha][Bta]F-NH2), the IC50 was 50 to 200 nM.

As to `CC(=O)N[C@@H](CCCNC(N)=O)C(=O)N[C@@H](Cc1ccccc1)C(=O)N[C@@H](CCCN)C(=O)N1CC[C@H]1C(=O)N[C@H](CC1CCCCC1)C(=O)N[C@@H](Cc1csc2ccccc12)C(=O)N[C@@H](Cc1ccccc1)C(N)=O` [Compound 153, Ac-Cit-Phe-Orn-Aze-cha-Bta-Phe-NH2] (Ac-[Cit]F[Orn][Aze][dCha][Bta]F-NH2), the IC50 was in the range of 20 to 50 nM.

Consider `COC(=O)N[C@@H](Cc1ccccc1)C(=O)N[C@@H](CCCN)C(=O)N1CCC[C@H]1C(=O)N[C@H](CC1CCCCC1)C(=O)N[C@@H](Cc1csc2ccccc12)C(=O)N[C@@H](Cc1ccccc1)C(N)=O` [Compound 129, Me-O—CO-Phe-Orn-Pro-cha-Bta-Phe-NH2] (Moc-F[Orn]P[dCha][Bta]F-NH2), for which the IC50 lay within 50 to 200 nM.

Regarding `CCCC[C@@H]1NC(=O)[C@H](Cc2c[nH]c3ccccc23)NC(=O)[C@@H](CC2CCCCC2)NC(=O)[C@H](CC(N)=O)N(C)C(=O)[C@@H](NC(=O)[C@H](Cc2ccccc2)NC(C)=O)CCCNC1=O` [Compound 184, Ac-Phe-[Orn-NMD-cha-Trp-Nle]] (Ac-F[Orn][NMeN][dCha]W[Nle]; lactam 2-C), the IC50 is 50 to 200 nM.
